# Where a name gives a salt, the structure may show the parent alone. Read-outs that look alike come from different tables or passages of the source.
# Assays:
# [1] = molecular target: T1, Human fibrinogen receptor (αIIb β3) (Homo sapiens, UniProt P05106+P08514); experiment: Purified IIb/IIIa receptor assay (solid phase receptor assay, biotinylated vitronectin competition); settings: inhibition of 50% of the maximum binding of biotinylated vitronectin; 1 nM labeled ligand, 2 hours, room temperature, highest concentration of test compound 1.0×10^-4 M
# T1 construct: Human fibrinogen receptor (αIIb β3) was purified from outdated platelets; from tissue; host or cells: outdated human platelets
# Text: PURIFIED IIb/IIIa RECEPTOR ASSAY Human fibrinogen receptor (αIIb β3) was purified from outdated platelets. (Pytela, R., Pierschbacher, […]., Suzuki, S., and […] acid adhesion receptors", Methods in Enzymology 144(1987):475-489.) Human vitronectin was purified from fresh frozen plasma as described in Yatohgo, T., Izumi, M., Kashiwagi, H., and Hayashi, M., "Novel purification of vitronectin from human plasma by heparin affinity chromatography," Cell Structure and Function 13(1988):281-292. Biotinylated human vitronectin was prepared by coupling NHS-biotin from Pierce Chemical Company (Rockford, Ill.) to purified vitronectin as previously described. (Charo, […]., Phillips, D. R., Hsu, M. A., Scarborough, R. M., "Inhibition of fibrinogen binding to GP IIb/IIIa by a GP IIIa peptide", J. Biol. Chem. 266(3)(1991):1415-1421.) Assay buffer, OPD substrate tablets, and RIA grade BSA were obtained from Sigma (St. Louis, Mo.). Anti-biotin antibody was obtained from Calbiochem (La Jolla, Calif.). Linbro microtiter plates were obtained from Flow Labs (McLean, Va.). ADP reagent was obtained from Sigma (St. Louis, Mo.). Solid Phase Receptor Assays This assay is essentially the same reported in […]., Bader, R., Byers-Ward, […]., Plow, E. F. and Ruggeri, Z. M., "Increased surface expression of the membrane glycoprotein IIb/IIIa complex induced by platelet activation: Relationships to the binding of fibrinogen and platelet aggregation", Blood 70(1987):475-483. The purified human fibrinogen receptor (αIIb β3) was diluted from stock solutions to 1.0 μg/mL in Tris-buffered saline containing 1.0 mM Ca^++, Mg^++, and Mn^++, pH 7.4 (TBS^+++). The diluted receptor was immediately transferred to Linbro microtiter plates at 100 μL/well (100 ng receptor/well). The plates were sealed and incubated overnight at 4° C. to allow the receptor to bind to the wells. All remaining steps were at room temperature. The assay plates were emptied and 200 μL of 1% RIA grade BSA in TBS^+++ (TBS^+++ /BSA) were added to block exposed plastic surfaces. Following a 2 hour incubation, the assay plates were washed with TBS^+++ using a 96 well plate washer. Logarithmic serial dilution of the test compound and controls were made starting at a stock concentration of 2 mM and using 2 nM biotinylated vitronectin in TBS^+++ /BSA as the diluent. This premixing of labeled ligand with test (or control) ligand, and subsequent transfer of 50 μL aliquots to the assay plate was carried out with a CETUS Propette robot; the final concentration of the labeled ligand was 1 nM and the highest concentration of test compound was 1.0×10^-4 M. The competition occurred for two hours after which all wells were washed with a plate washer as before. Affinity purified horseradish peroxidase labeled goat antibiotin antibody was diluted 1:3000 in TBS^+++ /BSA and 125 μL were added to each well. After 30 minutes, the plates were washed and incubated with […]/H2 O2 substrate in 100 mM/L citrate buffer, pH 5.0. The plate was read with a microtiter plate reader at a wavelength of 450 nm and when the maximum-binding control wells reached an absorbance of about 1.0, the final A450 were recorded for analysis. The data were analyzed using a macro written for use with the EXCELTM spreadsheet program. The mean, standard deviation, and %CV were determined for duplicate concentrations. The mean A450 values were normalized to the mean of four maximum-binding controls (no competitor added)(B-MAX). The normalized values were subjected to a four parameter curve fit algorithm, [Robard et al., Int.
# [2] = molecular target: T2, Human vitronectin receptor (αv β3) (Homo sapiens, UniProt P05106+P06756); experiment: Vitronectin adhesion assay (solid phase receptor assay, biotinylated vitronectin competition); type: binding
# T2 construct: Human vitronectin receptor(αv β3) was purified from human placenta; from tissue; host or cells: human placenta
# Description: VITRONECTIN ADHESION ASSAY Human vitronectin receptor(αv β3) was purified from human placenta as previously described [Pytela et al., Methods in Enzymology, 144:475-489 (1987)). Human vitronectin was purified from fresh frozen plasma as previously described [Yatohgo et al., Cell Structure and Function, 13:281-292 (1988)]. Biotinylated human vitronectin was prepared by coupling NHS-biotin from Pierce Chemical Company (Rockford, Ill.) to purified vitronectin as previously described [Charo et al., J. Biol. Chem., 266(3):1415-1421 (1991)]. Assay buffer, OPD substrate tablets, and RIA grade BSA were obtained from Sigma (St. Louis, Mo.). Anti-biotin antibody was obtained from Calbiochem (La Jolla, Calif.). Linbro microtiter plates were obtained from Flow Labs (McLean, Va.). ADP reagent was obtained from Sigma (St. Louis, Mo.). Solid Phase Receptor Assays This assay was essentially the same as previously reported [Niiya et al., Blood, 70:475-483 (1987)]. The purified human vitronectin receptor (αv β3) was diluted from stock solutions to 1.0 μg/mL in Tris-buffered saline containing 1.0 mM Ca^++, Mg^++, and Mn^++, pH 7.4 (TBS^+++). The diluted receptor was immediately transferred to Linbro microtiter plates at 100 μL/well (100 ng receptor/well). The plates were sealed and incubated overnight at 4° C. to allow the receptor to bind to the wells. All remaining steps were at room temperature. The assay plates were emptied and 200 μL of 1% RIA grade BSA in TBS^+++ (TBS^+++ /BSA) were added to block exposed plastic surfaces. Following a 2 hour incubation, the assay plates were washed with TBS^+++ using a 96 well plate washer. Logarithmic serial dilution of the test compound and controls were made starting at a stock concentration of 2 mM and using 2 nM biotinylated vitronectin in TBS^+++ /BSA as the diluent. This premixing of labeled ligand with test (or control) ligand, and subsequent transfer of 50 μL aliquots to the assay plate was carried out with a CETUS Propette robot; the final concentration of the labeled ligand was 1 nM and the highest concentration of test compound was 1.0×10^-4 M. The competition occurred for two hours after which all wells were washed with a plate washer as before. Affinity purified horseradish peroxidase labeled goat antibiotin antibody was diluted 1:3000 in TBS^+++ /BSA and 125 μL were added to each well. After 30 minutes, the plates were washed and incubated with OPD/H2 O2 substrate in 100 mM/L Citrate buffer, pH 5.0. The plate was read with a microtiter plate reader at a wavelength of 450 nm and when the maximum-binding control wells reached an absorbance of about 1.0, the final A450 were recorded for analysis. The data were analyzed using a macro written for use with the EXCEL™ spreadsheet program. The mean, standard deviation, and %CV were determined for duplicate concentrations. The mean A450 values were normalized to the mean of four maximum-binding controls (no competitor added)(B-MAX). The normalized values were subjected to a four parameter curve fit algorithm [Rodbard et al., Int.
# [3] = inhibition of 50% of the maximum binding of biotinylated vitronectin, 1 nM labeled ligand, 2 hours, room temperature, highest concentration of test compound 1.0×10^-4 M, read-out: AvB3 IC50
SMILES,IC50 [1] [nM],"IC50 [2, 3] [nM]","IC50 ([2]; positive control included on each plate, range given in text, read-out: αv β3 antagonist IC50 (positive control)) [nM]"
"N=C(N)Nc1cccc(C#Cc2cccc(C(CC(=O)O)c3ccccc3)c2)c1 (stereo not drawn) [Example 74, 3-[2-[3-[(aminoiminomethyl)amino]phenyl]ethynyl]-β-phenylbenzenepropanoic acid, trifluoroacetate salt]",20100,1480,–
"C[C@@H](CC(=O)O)c1cccc(CNC(=O)c2cccc(NC(=N)N)c2)c1 [Example 57, 3-[[[[3-[(aminoiminomethyl)amino]phenyl]carbonyl]amino]methyl]-βS-methylbenzenepropanoic acid]",17600,189,–
"N=C(N)Nc1cccc(NC(=O)NCc2cccc(CCC(=O)O)c2)c1 [Example 53, 3-[[[[[3-[(aminoiminomethyl)amino]phenyl]amino]carbonyl]amino]methyl]benzenepropanoic acid, trifluoroacetate salt]",2640,1670,–
"CCOC(=O)CCc1cccc(CNC(=O)c2cccc(NC(N)=O)c2)c1 [Example 28, ethyl 3-[[[[3-[(aminocarbonyl)amino]phenyl]carbonyl]amino]methyl]benzenepropanoate]",> 100000,> 100000,–
"O=C(O)CCc1cccc(OCC(O)c2cccc(NC3=NCCN3)c2)c1 (stereo not shown) [Example 71, 3-[2-[3-[(4,5-dihydro-1H-imidazol-2-yl)amino]phenyl]-2-hydroxyethoxy]benzenepropanoic acid, trifluoroacetate salt]",9750,30.4,–
"N=C(N)Nc1cccc(C(=O)NCc2cccc(C(CC(=O)O)c3ccccc3)c2)c1 (stereo not drawn) [Example 38, 3-[[[[3-[(aminoiminomethyl)amino]phenyl]carbonyl]amino]methyl]-β-phenylbenzenepropanoic acid, trifluoroacetate salt]",364,8.95,–
"CCC(CC(=O)O)c1cccc(CNC(=O)c2cccc(NC(=N)N)c2)c1 (stereo not drawn) [Example 42, 3-([[[3-[(aminoiminomethyl)amino]phenyl]carbonyl]amino]methyl]-β-ethylbenzenepropanoic acid, trifluoroacetate salt]",472,11.7,–
"N=C(N)Nc1cccc(S(=O)(=O)Nc2cccc(C(CC(=O)O)c3ccccc3O)c2)c1 (stereo not drawn) [Example 102, Sodium β-[3-[[[3[(aminoiminomethyl)amino]phenyl]-sulfonyl]amino]phenyl]-2-hydroxybenzenepropanoate, Trifluoroacetate Salt]",706,23.2,–
"O=C(O)CC(c1cc(F)cc(F)c1)c1cccc(NS(=O)(=O)c2cccc(NC3=NCCN3)c2)c1 (stereo not drawn) [Example 98, β-[3-[[[3-[(4,5-dihydro-1H-imidazol-2-yl)amino]phenyl]sulfonyl]amino]phenyl]-3,5-difluorobenzenepropanoic Acid, Trifluoroacetate Salt]",642,0.85,–
"N=C(N)Nc1cccc(C(=O)NCCc2cccc(CC(=O)O)c2)c1 [Example 44, 3-[2-[[[3-[(aminoiminomethyl)amino]phenyl]carbonyl]amino]ethyl]benzeneacetic acid, monohydrate trifluoroacetate salt]",94,3210,–
"N=C(N)Nc1cccc(S(=O)(=O)Nc2cccc(C(CC(=O)O)c3ccc(F)cc3)c2)c1 (stereo not drawn) [Example 79, β-[3-[[[3-[(aminoiminomethyl)amino]phenyl]sulfonyl]amino]phenyl]-4-fluorobenzenepropanoic Acid, Trifluoroacetate Salt]",327,10,–
"N=C(N)Nc1cccc(/C=C/c2cccc(C(CC(=O)O)c3ccccc3)c2)c1 (stereo not drawn) [Example 75, 3-[2E-[3-[(aminoiminomethyl)amino]phenyl]ethenyl]-β-phenylbenzenepropanoic Acid, Bis(trifluoroacetate) Salt]",6150,54.5,–
"N=C(N)Nc1cccc(C(=O)NCc2cccc(C(CC(=O)O)c3cc(F)cc(F)c3)c2)c1 (racemic) [Example 60, (±) β-[3-[[[[3-[(aminoiminomethyl)amino]phenyl]carbonyl]amino]methyl]phenyl]-3,5-difluorobenzenepropanoic acid, trifluoroacetate salt]",286,4.58,–
"COC(=O)Cc1cccc(CNC(=O)c2cccc(NC(=N)N)c2)c1 [Example 47, methyl 3-[[[[3-[(aminoiminomethyl)amino]phenyl]carbonyl]amino]methyl]benzeneacetate, trifluoroacetate salt]",> 100000,36500,–
"CNC(=NC#N)Nc1cccc(C(=O)NCc2cccc(C(CC(=O)O)c3ccccc3)c2)c1 (stereo not drawn) [Example 55, 3-[[[[3-[[(cyanoimino)(methylamino)methyl]amino]phenyl]carbonyl]amino]methyl]-β-phenylbenzenepropanoic acid]",13400,108,–
N=C(N)NCCCCC(=O)NCC(=O)NC(CC(=O)O)c1cccnc1 (stereo not drawn) [β-[[2-[[5-[(aminoiminomethyl)amino]-1-oxopentyl]amino]-1-oxoethyl]amino]-3-pyridinepropanoic acid],–,–,3 to 10
